In ChEMBL document CHEMBL3860055, “Design, synthesis and in vitro evaluation of amidoximes as histone deacetylase inhibitors for cancer therapy” (Bioorg Med Chem Lett, 2016):

How the values were obtained:
[1] = Antiproliferative activity against human HCT116 cells measured after 72 hrs by WST1 assay; type: functional, cell-based; settings: HCT-116, 72 h
[2] = molecular target: Histone deacetylase (HDAC1 and HDAC2) (Homo sapiens, UniProt Q13547+Q92769); assay: Inhibition of HDAC1/HDAC2 in human HeLa cell nuclear extract preincubated for 20 mins followed by addition of HDAC green as substrate measured after 60 mins by fluorescence analysis; type: cell-based
[3] = Antiproliferative activity against human A549 cells measured after 72 hrs by WST1 assay; type: functional, cell-based; settings: A549, 72 h
[4] = Cell cycle arrest in human A549 cells assessed as accumulation at G2/M-phase at 157 uM measured after 24 hrs by propidium iodide staining based flow cytometric analysis (reference value: 27%); type: functional
[5] = Cell cycle arrest in human HCT116 cells assessed as accumulation at G1-phase at 157 uM measured after 24 hrs by propidium iodide staining based flow cytometric analysis (reference value: 59%); type: functional; settings: HCT-116
[6] = Cell cycle arrest in human A549 cells assessed as accumulation at G2/M-phase at 26 uM measured after 24 hrs by propidium iodide staining based flow cytometric analysis (reference value: 27%); type: functional
[7] = Cell cycle arrest in human HCT116 cells assessed as accumulation at G1-phase at 26 uM measured after 24 hrs by propidium iodide staining based flow cytometric analysis (reference value: 59%); type: functional; settings: HCT-116
[8] = Cell cycle arrest in human A549 cells assessed as accumulation at S-phase at 26 uM measured after 24 hrs by propidium iodide staining based flow cytometric analysis (reference value: 7%); type: functional
[9] = Cell cycle arrest in human HCT116 cells assessed as accumulation at G2/M-phase at 26 uM measured after 24 hrs by propidium iodide staining based flow cytometric analysis (reference value: 30%); type: functional; settings: HCT-116
[10] = Cell cycle arrest in human A549 cells assessed as accumulation at G2/M-phase measured after 24 hrs by propidium iodide staining based flow cytometric analysis; type: functional
[11] = Cell cycle arrest in human A549 cells assessed as accumulation at G1-phase at 157 uM measured after 24 hrs by propidium iodide staining based flow cytometric analysis (reference value: 63%); type: functional
[12] = Cell cycle arrest in human HCT116 cells assessed as accumulation at S-phase at 26 uM measured after 24 hrs by propidium iodide staining based flow cytometric analysis (reference value: 8%); type: functional; settings: HCT-116
[13] = Cell cycle arrest in human A549 cells assessed as accumulation at S-phase at 157 uM measured after 24 hrs by propidium iodide staining based flow cytometric analysis (reference value: 7%); type: functional
[14] = Cell cycle arrest in human HCT116 cells assessed as accumulation at S-phase at 157 uM measured after 24 hrs by propidium iodide staining based flow cytometric analysis (reference value: 8%); type: functional; settings: HCT-116
[15] = Cell cycle arrest in human A549 cells assessed as accumulation at G1-phase at 26 uM measured after 24 hrs by propidium iodide staining based flow cytometric analysis (reference value: 63%); type: functional
[16] = Cell cycle arrest in human HCT116 cells assessed as accumulation at G2/M-phase at 157 uM measured after 24 hrs by propidium iodide staining based flow cytometric analysis (reference value: 30%); type: functional; settings: HCT-116

IC50 [2] [nM]	SMILES	EC50 [1] [µM]	EC50 [3] [µM]	further results
599	CCCCCCNC(=O)Nc1ccc(/C(N)=N/O)cc1	195	> 1000	
> 1000	CCCCNCCCCC(=O)Nc1ccc(/C(N)=N/O)cc1	516	> 1000	
697	N/C(=N\O)c1ccc(NC(=O)CCCNCCc2ccccc2)cc1	218	> 1000	
304	N/C(=N\O)c1ccc(NC(=O)NCCc2ccccc2)cc1	91	463	
723	CCCCNCCCC(=O)Nc1ccc(/C(N)=N/O)cc1	267	> 1000	
273	N/C(=N\O)c1ccc(NC(=O)CCNCCc2ccccc2)cc1	69	330	
602	CCCCCCNCCC(=O)Nc1ccc(/C(N)=N/O)cc1	193	> 1000	
381	CCCCCCNCC(=O)Nc1ccc(/C(N)=N/O)cc1	124	658	
> 1000	CCCCCCNCCCCC(=O)Nc1ccc(/C(N)=N/O)cc1	> 1000	> 1000	
591	CCCCNC(=O)Nc1ccc(/C(N)=N/O)cc1	186	> 1000	
> 1000	N/C(=N\O)c1ccc(NC(=O)CCCCNCCc2ccccc2)cc1	691	> 1000	
282	CCCCNCC(=O)Nc1ccc(/C(N)=N/O)cc1	83	395	
93	N/C(=N\O)c1ccc(NC(=O)CNCCc2ccccc2)cc1	26	157	Activity [4]: 68%; Activity [5]: 3%; Activity [6]: 36%; Activity [7]: 31%; Activity [8]: 7%; Activity [9]: 58%; Activity [10]: Dose-dependent effect; Activity [11]: 22%; Activity [12]: 7%; Activity [13]: 9%; Activity [14]: 5%; Activity [15]: 54%; Activity [16]: 87%
582	O=C(NCCc1ccccc1)Nc1ccc(C(=O)NO)cc1	175	> 1000	
> 1000	CCCCCCNCCCC(=O)Nc1ccc(/C(N)=N/O)cc1	312	> 1000	
528	CCCCNCCC(=O)Nc1ccc(/C(N)=N/O)cc1	153	881	
